Experimental data taken from patent US11572590B2, “Methods for evaluating tumor cell spheroids using 3D microfluidic cell culture device” (Dana-Farber Cancer Institute, Inc., priority 2017, dated 2023).
Read-outs that look alike come from different tables or passages of the source.

Key:
Assay in all cases: SelectScreen Kinase Profiling, single point inhibition and IC50 for off-target kinases
Assay type in all cases: biochemical
off-target kinases [1] = molecular target: T1, off-target kinases (Homo sapiens, UniProt Q16566)
T1 sequence (Q16566 1-473): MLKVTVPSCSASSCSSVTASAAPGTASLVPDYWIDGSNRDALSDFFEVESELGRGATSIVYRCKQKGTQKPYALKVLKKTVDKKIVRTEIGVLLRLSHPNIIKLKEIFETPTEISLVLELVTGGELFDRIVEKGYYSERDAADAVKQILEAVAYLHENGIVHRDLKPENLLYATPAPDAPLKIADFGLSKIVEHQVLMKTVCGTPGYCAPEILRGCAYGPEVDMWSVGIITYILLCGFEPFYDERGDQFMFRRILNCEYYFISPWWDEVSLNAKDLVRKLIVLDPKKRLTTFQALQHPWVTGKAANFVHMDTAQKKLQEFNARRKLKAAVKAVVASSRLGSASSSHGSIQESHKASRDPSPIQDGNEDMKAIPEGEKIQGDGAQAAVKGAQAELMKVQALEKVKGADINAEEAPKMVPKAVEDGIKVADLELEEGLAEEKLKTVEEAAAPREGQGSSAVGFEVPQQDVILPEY

off-target kinases [2] = molecular target: off-target kinases (Homo sapiens, UniProt P32298); settings: GRK4; Cmpd1 1000 μM; ATP Km app; ZLYTE
off-target kinases (Homo sapiens, UniProt P32298), sequence (P32298 whole entry): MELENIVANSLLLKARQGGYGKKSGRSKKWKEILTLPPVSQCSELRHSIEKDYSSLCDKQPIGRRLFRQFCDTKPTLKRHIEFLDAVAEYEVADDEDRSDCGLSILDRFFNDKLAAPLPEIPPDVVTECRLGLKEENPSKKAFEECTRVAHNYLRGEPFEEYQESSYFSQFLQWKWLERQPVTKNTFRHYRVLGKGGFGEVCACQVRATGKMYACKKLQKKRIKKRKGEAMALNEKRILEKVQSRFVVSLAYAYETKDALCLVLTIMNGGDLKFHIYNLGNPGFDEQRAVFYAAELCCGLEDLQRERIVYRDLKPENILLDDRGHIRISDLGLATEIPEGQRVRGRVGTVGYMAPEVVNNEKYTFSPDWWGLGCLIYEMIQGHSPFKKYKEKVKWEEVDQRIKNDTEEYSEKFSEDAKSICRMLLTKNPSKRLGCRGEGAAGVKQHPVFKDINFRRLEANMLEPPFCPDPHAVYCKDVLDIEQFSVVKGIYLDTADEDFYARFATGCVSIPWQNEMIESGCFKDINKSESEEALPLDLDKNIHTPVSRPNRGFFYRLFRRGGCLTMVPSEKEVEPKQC

off-target kinases [3] = molecular target: off-target kinases (Homo sapiens, UniProt Q9Y6M4); settings: CSNK1G3 (CK1 gamma 3), ZLYTE, ATP Km app
off-target kinases (Homo sapiens, UniProt Q9Y6M4), sequence (Q9Y6M4 whole entry): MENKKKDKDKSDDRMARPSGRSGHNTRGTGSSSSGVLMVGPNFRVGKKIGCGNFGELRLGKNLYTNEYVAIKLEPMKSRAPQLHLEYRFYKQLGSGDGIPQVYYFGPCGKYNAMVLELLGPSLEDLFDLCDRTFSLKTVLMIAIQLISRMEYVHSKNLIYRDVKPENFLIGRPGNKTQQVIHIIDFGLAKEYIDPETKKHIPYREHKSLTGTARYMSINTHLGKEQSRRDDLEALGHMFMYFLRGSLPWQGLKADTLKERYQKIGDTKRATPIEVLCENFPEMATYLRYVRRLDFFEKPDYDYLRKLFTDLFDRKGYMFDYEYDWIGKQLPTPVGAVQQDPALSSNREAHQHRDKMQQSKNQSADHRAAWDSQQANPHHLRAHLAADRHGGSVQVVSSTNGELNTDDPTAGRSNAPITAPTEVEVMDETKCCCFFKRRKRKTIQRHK

off-target kinases [4] = molecular target: T2, off-target kinases (Homo sapiens, UniProt O15530); settings: ZLYTE
T2 sequence (O15530 1-556): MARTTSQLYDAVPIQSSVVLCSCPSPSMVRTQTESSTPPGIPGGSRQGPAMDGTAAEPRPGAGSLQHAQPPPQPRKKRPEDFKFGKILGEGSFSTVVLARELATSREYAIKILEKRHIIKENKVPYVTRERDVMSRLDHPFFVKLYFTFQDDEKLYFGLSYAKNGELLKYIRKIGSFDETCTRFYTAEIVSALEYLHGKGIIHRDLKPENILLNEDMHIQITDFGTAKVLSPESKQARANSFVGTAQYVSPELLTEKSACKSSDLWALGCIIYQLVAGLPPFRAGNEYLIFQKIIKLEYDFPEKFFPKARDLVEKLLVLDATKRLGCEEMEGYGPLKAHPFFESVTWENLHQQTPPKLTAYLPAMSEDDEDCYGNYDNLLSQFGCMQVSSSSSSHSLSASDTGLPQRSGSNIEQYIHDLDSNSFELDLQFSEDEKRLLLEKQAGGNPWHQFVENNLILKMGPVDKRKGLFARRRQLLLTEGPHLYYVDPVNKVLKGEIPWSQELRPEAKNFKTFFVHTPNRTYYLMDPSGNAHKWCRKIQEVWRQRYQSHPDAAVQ

N#Cc1cc(-c2ncnc(Nc3ccc(N4CCN(C5COC5)CC4)cc3)n2)ccc1OC1CCOCC1 [Compound 1, 5-(4-((4-(4-(oxetan-3-yl)piperazin-1-yl)phenyl)amino)-1,3,5-triazin-2-yl)-2-((tetrahydro-2H-pyran-4-yl)oxy)benzonitrile] gave an inhibition (off-target kinases [1]; CAMK4 (CaMKIV), ZLYTE, ATP Km app, read-out: % Inhibition 2) of -2%, an inhibition (off-target kinases [1]; CAMK4 (CaMKIV), ZLYTE, ATP Km app, read-out: % Inhibition Avg) of -2% and an inhibition (off-target kinases [1]; read-out: % Inhibition 1) of -2%. For the same compound, the “% Inhibition 1” value (off-target kinases [2]) was −4%, the “% Inhibition 2” value (off-target kinases [2]) was −5% and the “% Inhibition Avg” value (off-target kinases [2]) was −5%. It also gave an inhibition (off-target kinases [3]; read-out: % Inhibition 1) of 4%, an inhibition (off-target kinases [3]; read-out: % Inhibition 2) of -2% and an inhibition (off-target kinases [3]; read-out: % Inhibition Avg) of 1%. It also gave an inhibition (off-target kinases [4]; PDK1, ATP 100, read-out: % Inhibition 1) of 14%, an inhibition (off-target kinases [4]; PDK1, ATP 100, read-out: % Inhibition 2) of 16% and an inhibition (off-target kinases [4]; PDK1, ATP 100, read-out: % Inhibition Avg) of 15%. It also gave an inhibition (off-target kinases [4]; PDK1 Direct, ATP Km app, read-out: % Inhibition 1) of 85%, an inhibition (off-target kinases [4]; PDK1 Direct, ATP Km app, read-out: % Inhibition 2) of 74% and an inhibition (off-target kinases [4]; PDK1 Direct, ATP Km app, read-out: % Inhibition Avg) of 79%.
